The values below come from paper PMC6023893, “Glutamic acid–valine–citrulline linkers ensure stability and efficacy of antibody–drug conjugates in mice” (Nature Communications, 2018).

For data set [1] the following is noted: ref US8512707B2; cited from earlier work.
A short description of the next data set: in vitro. The format is in vitro ADME. Conditions: BALB/c, mouse, plasma. The procedure:
Each test compound (10 mM in DMSO, 2 µL) was mixed with 1 µL of 1-pyrenemethylamine (10 mM in DMSO, internal standard) and incubated at 37 °C for 10 min. Pre-warmed human plasma pooled from healthy donors or BALB/c mouse plasma (197 µL, Innovative Research) was added to the mixture, followed by incubation at 37 °C. Aliquots (10 µL) were collected at each time point (0, 1, 6, 24, 48, and 96 h) and 40 µL of cold acetonitrile containing 1% formic acid was added to precipitate proteins. Supernatant of each sample was obtained and analyzed for quantification by analytical HPLC as described above. All assays were performed in triplicate.

The target of another data set is T1, human liver cathepsin B (Homo sapiens, UniProt P07858).
T1 construct: Pre-warmed human liver cathepsin B (20 ng µL^–1, EMD Millipore); purchased EMD Millipore; host or cells: human liver (tissue-derived, as named)
The data set can be described thus: Cathepsin B-mediated cleavage assay using pyrene probes. Format: biochemical. The settings on record: 37 °C, pH 5.0. The protocol: Each test compound (10 mM in DMSO, 2 µL) was mixed with 97 µL of MES buffer (25 mM MES-Na, 1 mM DTT, pH 5.0) and 1 µL of 1-pyrenemethylamine (10 mM in DMSO, internal standard). The mixture was incubated at 37 °C for 10 min. Pre-warmed human liver cathepsin B (20 ng µL^–1, EMD Millipore) in 100 µL MES buffer was added to the mixture, followed by incubation at 37 °C. Aliquots (10 µL) were collected at each time point (0, 0.5, 1, 3, 24, and 48 h). Cold acetonitrile containing 1% formic acid (40 µL) was added to precipitate proteins. Precipitated proteins were separated by centrifugation (15,000 × g, 4 °C, 30 min) and supernatant of each sample was analyzed for quantification by analytical HPLC (UV absorption at 342 nm). The amount of each probe was normalized to the peak area of the internal standard. All assays were performed at least three times in technical duplicate, and data shown are representative of the replicates.

Numbered stars: 1 amine (or outer) side, 2 acyl side, 3 side chain; on linkers, the order of the positions; unused ones are H or OH. Square brackets hold non-standard residues; d marks the D form. Peptide text beside a SMILES is read from it. * marks the point of attachment. Dolaproine = CO[C@@H]([C@@H]1CCCN1)[C@@H](C)C(=O)O; NHCH2(1-pyrenyl) = c1cc2ccc3ccc(CN*)c4ccc(c1)c2c34; Dil = CC[C@H](C)[C@H](NC)[C@@H](CC(=O)O)OC; PABC = O=C(OCc1ccc(N[*:1])cc1)[*:2]; X1 = C[C@@H](N*)[C@@H](O)c1ccccc1; Cit = NC(=O)NCCC[CH](N)C(=O)O; NMeV = CN[C@H](C(=O)O)C(C)C; Glycolyl = O=C(CO)*; Sar = CNCC(=O)O

For the compound `CC[C@H](C)[C@@H]([C@@H](CC(=O)N1CCC[C@H]1[C@H](OC)[C@@H](C)C(=O)N[C@H](C)[C@@H](O)c1ccccc1)OC)N(C)C(=O)[C@@H](NC(=O)[C@@H](NC)C(C)C)C(C)C` [MMAE, monomethyl auristatin E] (H-[NMeV]V[Dil][Dolaproine]-X1), in data set [1], the “maximum tolerated dose (MTD)” value is reported as 1 mg/kg.

One may read the half-life as how long it takes for the measured level to halve. Read a low half-life as rapid decline. Take `CC(=O)NC(CCC(=O)O)C(=O)NC(C(=O)NC(CCCNC(N)=O)C(=O)Nc1ccc(COC(=O)N(C)CC(=O)NCc2ccc3ccc4cccc5ccc2c3c45)cc1)C(C)C` (centres unmarked) [probe 1c] (Ac-EV[Cit][PABC][Sar]-{NHCH2(1-pyrenyl)}; configuration not given here): the half-life at 100 µM in “in vitro” is 19.1 h.

Turning to `CC(C)C(NC(=O)CNC(=O)CO)C(=O)NC(CCCNC(N)=O)C(=O)Nc1ccc(COC(=O)N(C)CC(=O)NCc2ccc3ccc4cccc5ccc2c3c45)cc1` (centres unmarked) [probe 1f] (Glycolyl-GV[Cit][PABC][Sar]-{NHCH2(1-pyrenyl)}; configuration not given here), the half-life at 100 µM in the data set “in vitro” was 5 h.

Regarding `CC(=O)NC(CC(=O)O)C(=O)NC(C(=O)NC(CCCNC(N)=O)C(=O)Nc1ccc(COC(=O)N(C)CC(=O)NCc2ccc3ccc4cccc5ccc2c3c45)cc1)C(C)C` (centres unmarked) [probe 1d] (Ac-DV[Cit][PABC][Sar]-{NHCH2(1-pyrenyl)}; configuration not given here), the half-life at 100 µM in “in vitro” is 14 h. Still for that read-out and setting: for `CC(=O)NC(C(=O)NC(CCCNC(N)=O)C(=O)Nc1ccc(COC(=O)N(C)CC(=O)NCc2ccc3ccc4cccc5ccc2c3c45)cc1)C(C)C` (centres unmarked) [probe 1a] the value was 2.3 h; for `CC(=O)NC(CCCCN)C(=O)NC(C(=O)NC(CCCNC(N)=O)C(=O)Nc1ccc(COC(=O)N(C)CC(=O)NCc2ccc3ccc4cccc5ccc2c3c45)cc1)C(C)C` (centres unmarked) [probe 1e] (Ac-KV[Cit][PABC][Sar]-{NHCH2(1-pyrenyl)}; configuration not given here), 0.9 h. In the case of `CC(=O)NC(CO)C(=O)NC(C(=O)NC(CCCNC(N)=O)C(=O)Nc1ccc(COC(=O)N(C)CC(=O)NCc2ccc3ccc4cccc5ccc2c3c45)cc1)C(C)C` (centres unmarked) [probe 1b] (Ac-SV[Cit][PABC][Sar]-{NHCH2(1-pyrenyl)}; configuration not given here), on human liver cathepsin B, the “Cathepsin B-mediated cleavage rate of probes” value was “cleavage rate comparable with that of VCit probe 1a”. The compound also gave a half-life at 100 µM in “in vitro” of 3.1 h.
